We go through eight compounds from patent publication US9815831B2, “3,5-disubstituted-3H-imidazo[4,5-B]pyridine and 3,5-disubstituted-3H-[1,2,3]triazolo[4,5-B] pyridine compounds as modulators of c-Met protein kinases” (Rhizen Pharmaceuticals SA, priority 2012, dated 2017).

Like-named read-outs stand apart in the source and are kept apart here. A value given as a limit tells only on which side of the number the result lay.

One assay concerns MDA-MB-231 cells. The assay can be described thus: Inhibition of HGF-induced cell proliferation in MDA-MB-231 cells (MTT). In kind it is cell-based. The conditions noted are these: Homo sapiens, Table 8, HGF (50 ng/ml). On the procedure:
8. Inhibition of HGF-Induced Met Phosphorylation in MDA-MB-231 Cells:
MDA-MB-231 is a breast cancer cell line having a high level of c-Met expression. Activation of Met kinase in these cells occurs only after the addition of its natural ligand, Hepatocyte Growth Factor (HGF). Upon binding to the extracellular domain of the enzyme, it triggers phosphorylation of tyrosine residues and regulates several downstream events such as cell proliferation. Cell proliferation assays were carried out using the high Met expressing cell line (MDA-MB-231) according to the following schedule: • Day 1: Cells were plated in 96-well plates in complete growth medium. • Day 2: Media was replaced with starvation medium containing 0.04% BSA. • Day 3: Inhibitors at the desired concentrations and HGF (50 ng/ml) were added. • Day 5: Cell viability was determined using the 3-[4,5-dimethylthiazol-2-yl]-2,5-diphenyltetrazolium bromide (MTT) dye reduction test. […] Results: The results are provided below in Table 8 as IC50 values.

In assay [1] the target is T1, c-Met kinase (Homo sapiens, UniProt P08581). The assay can be described thus: Inhibition of c-Met kinase phosphorylation in MKN-45 cells (cell based ELISA). Also on record: endogenous in cells; host or cells: MKN-45. The conditions noted are these: Table 4D, 1 h incubation. On the procedure: MKN45 cells are a prototype of “c-Met addicted” cells having constitutively activated c-Met kinase similar to that observed in sub-sects of gastric or hepatocellular cancer patients with dysregulated c-Met kinase activity. Inhibition of Met phosphorylation was determined using a cell based ELISA assay according to the following schedule: • Day 1: MKN-45 cells were plated in 96-well plates in complete growth medium. • Day 2: Inhibitors at the desired concentration were added to the plates and incubated for 1 h and lysed subsequently. Lysates were transferred to NUNC Maxisorp plates coated with anti-cMet receptor antibody. Phopho-tyrosine mAb and HRP-lined anti-mouse IgG were used as primary and secondary antibodies respectively. Optical density was measured on a microplate reader (BMG Labtech., Germany) at […]. Inhibition of c-Met phosphorylation in this cell line indicates a therapeutic potential for test compounds in patients diagnosed with cancers caused by aberrant c-Met kinase signalling. Results: The results are provided above in Table 4D as IC50 values.
T1 sequence (P08581 25-1390): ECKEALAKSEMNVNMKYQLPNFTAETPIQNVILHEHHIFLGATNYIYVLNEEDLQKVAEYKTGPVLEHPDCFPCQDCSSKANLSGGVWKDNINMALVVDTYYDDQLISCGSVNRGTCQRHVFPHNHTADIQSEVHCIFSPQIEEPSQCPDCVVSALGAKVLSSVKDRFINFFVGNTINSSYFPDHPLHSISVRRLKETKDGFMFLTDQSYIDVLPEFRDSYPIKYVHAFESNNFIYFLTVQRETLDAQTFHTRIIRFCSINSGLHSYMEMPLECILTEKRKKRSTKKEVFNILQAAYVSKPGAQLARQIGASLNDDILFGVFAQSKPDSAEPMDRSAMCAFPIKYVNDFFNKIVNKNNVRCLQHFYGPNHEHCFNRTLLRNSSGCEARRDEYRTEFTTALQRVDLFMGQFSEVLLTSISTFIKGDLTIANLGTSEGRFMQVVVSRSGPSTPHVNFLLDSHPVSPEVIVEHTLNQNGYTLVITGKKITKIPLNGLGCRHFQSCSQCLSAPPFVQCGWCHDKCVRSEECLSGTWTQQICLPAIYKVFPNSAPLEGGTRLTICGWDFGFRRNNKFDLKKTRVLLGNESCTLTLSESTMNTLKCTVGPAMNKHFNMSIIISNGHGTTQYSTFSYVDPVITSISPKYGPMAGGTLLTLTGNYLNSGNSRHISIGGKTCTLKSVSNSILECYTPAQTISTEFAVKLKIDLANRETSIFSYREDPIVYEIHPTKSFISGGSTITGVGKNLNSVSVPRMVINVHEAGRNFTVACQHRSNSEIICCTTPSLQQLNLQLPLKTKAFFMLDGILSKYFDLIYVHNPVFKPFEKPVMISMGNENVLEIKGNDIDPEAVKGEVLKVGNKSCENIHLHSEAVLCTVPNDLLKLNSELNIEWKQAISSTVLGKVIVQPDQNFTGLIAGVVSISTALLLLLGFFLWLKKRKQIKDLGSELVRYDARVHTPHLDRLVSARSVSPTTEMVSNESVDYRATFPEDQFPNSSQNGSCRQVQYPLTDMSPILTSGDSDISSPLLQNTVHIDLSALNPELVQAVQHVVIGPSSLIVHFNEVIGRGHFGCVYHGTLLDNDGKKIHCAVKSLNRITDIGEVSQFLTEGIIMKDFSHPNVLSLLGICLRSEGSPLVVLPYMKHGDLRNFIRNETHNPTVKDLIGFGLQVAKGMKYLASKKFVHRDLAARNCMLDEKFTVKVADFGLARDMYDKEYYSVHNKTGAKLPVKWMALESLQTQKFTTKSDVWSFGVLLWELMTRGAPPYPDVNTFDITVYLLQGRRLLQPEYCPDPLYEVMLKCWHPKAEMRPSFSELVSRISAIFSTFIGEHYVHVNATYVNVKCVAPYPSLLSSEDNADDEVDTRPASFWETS

The test system of a further assay is MKN-45 cells. Kind of assay: Induction of apoptosis in MKN-45 cells (caspase-3 activity). Particulars: percentage induction @ 3 μM; caspase-3, MKN-45 cells, 24 h; percent of maximum response. The format is cell-based, human. The method, then: 7. Induction of Apoptosis in MKN-45 Cells: I
Induction of Caspase 3 was measured fluorimetrically. Cells were incubated with desired concentrations of the compound for 24 h. After incubation, cells were harvested and counted. An equal number of viable cells per well (0.3×10^6 cells) were used for determination of caspase-3 activity. Increase in apoptosis manifested by an elevation in caspase-3 levels was determined using a Caspase-3 kit from Millipore. Data are expressed as a percent of the maximum response (100%).
Results: The results are provided below as percentage induction @ 3 μM in Table 7.

The test system of assay [2] is Akt. Kind of assay: Inhibition of Akt phosphorylation in MKN-45 cells (Western blot). In kind it is cell-based. The conditions noted are these: Homo sapiens, Table 6, 0-1000 nM. On the procedure: (§1) 6. Inhibition of Akt Phosphorylation in MKN-45 or NCI-H441 Cells:
(§2) Akt is a serine-threonine kinase and a downstream marker regulated by c-Met kinase via the PI3K pathway. Once phosphorylated, Akt regulates several end processes including cell survival and growth. Cells were treated with 0-1000 nM of test compounds, lysed, and the proteins separated on a 10% SDS-PAGE. Following separation, proteins were transferred onto a nitrocellulose membrane and detected by chemiluminescence after incubation with […] (primary) and rabbit anti-mouse Ab (secondary). Intensity of the bands was determined using ImageJ 1.42q (NIH, USA) and normalized to Actin (loading control).
(§3) Results: The results are provided below as IC50 values in Table 6.

Assay [3] relates to Akt. The assay can be described thus: Inhibition of Akt phosphorylation in NCI-H441 cells (Western blot). The format is cell-based. The conditions noted are these: Homo sapiens, Table 6, 0-1000 nM. On the procedure: as §1, §2, §3
The test system of a further assay is MKN-45. Kind of assay: Inhibition of MKN-45 proliferation (MTT). The format is cell-based, human. The conditions noted are these: MKN-45 proliferation; for inhibition at 0.1 µM / GI50: Homo sapiens; for inhibition at 0.1 µM: read-out: MKN45 % inhibition @ 100 nM; for GI50: read-out: MKN45 GI50. In outline:
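High-Met human gastric adenocarcinoma MKN-45 cells plated on day 1 and exposed to compound from day 2. Viability measured by MTT dye reduction on day 5; output given as % inhibition at 100 nM and GI50.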

Assay [4] addresses T1, c-Met kinase. The assay can be described thus: Inhibition of c-Met kinase phosphorylation in NCI-H441 cells (cell based ELISA). Particulars: Table 5, 1 h incubation. On the procedure: 5. Inhibition of c-Met Kinase Phosphorylation in NCI-H441 Cells:
Inhibition of Met phosphorylation was determined using a cell based ELISA assay according to the following schedule: • Day 1: NCI-H441 cells were plated in 96-well plates in complete growth medium. • Day 2: Inhibitors at the desired concentration were added to the plates, incubated for 1 h and lysed subsequently. Lysates were transferred to NUNC Maxisorp plates coated with anti-cMet receptor antibody. Phopho-tyrosine mAb and HRP-lined anti-mouse IgG were used as primary and secondary antibodies respectively. Optical density was measured on a microplate reader (BMG Labtech., Germany) at […]. […] Results: The results are given below in Table 5 as IC50 values.

In assay [5] the target is T2, human recombinant Met kinase (Homo sapiens, UniProt P08581).
T2 construct: purchased Cell Signalling Technology, Beverly, Mass
T2 sequence (P08581 25-1390): as above
The assay can be described thus: Colorimetric determination of c-Met kinase activity (HTScan Met Kinase Assay Kit). In kind it is biochemical. Particulars: read-out: c-Met Enzyme IC50.

For assay [6], the target named is T2, human recombinant Met kinase. The description is as above. In kind it is biochemical. The conditions noted are these: Table 4A; 100 nM (cells without *); read-out: c-Met Enzyme % inhibition @ 100 nM. Put shortly:
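Human recombinant Met kinase was preincubated with compound for 5 min at room temperature, then reacted with ATP and biotinylated peptide for 30 min; EDTA stop. Phosphopeptide captured on streptavidin and detected with phospho-tyrosine mAb and europium anti-mouse IgG by time-resolved fluorescence (340/615 nm). Reported as % inhibition or IC50.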

Regarding `O=C(NOCCO)c1ccc(-c2ccc3nnn(Cc4ccc5ncccc5c4)c3n2)cc1Cl` [Example 6, 2-chloro-N-(2-hydroxyethoxy)-4-(3-(quinolin-6-ylmethyl)-3H-[1,2,3]triazolo[4,5-b]pyridin-5-yl)benzamide], the IC50 was under 10 nM in the assay with MDA-MB-231 cells; 25 to 50 nM on c-Met kinase [1]; 10 to 25 nM in the assay on Akt [2]; at most 10 nM with Akt [3]; at most 10 nM on c-Met kinase [4]; 25 to 50 nM in assay [5] (Table 4A). For the same compound, in the assay with MKN-45 cells, the “% induction of caspase-3 activity” value was “B (B is <75 and ≧50)”. Further, the inhibition at 0.1 µM in the assay on MKN-45 (MKN-45, Table 4A, 100 nM) was in the range of 75 to 100%. For the same compound, in the assay on MKN-45 (MKN-45, Table 4A), the GI50 lay within 25 to 50 nM.
With `O=C(NOCCO)c1c(F)cc(-c2ccc3nnn(Cc4cc5cccnc5cc4F)c3n2)cc1F` [Example 9, 2,6-difluoro-4-(3-((7-fluoroquinolin-6-yl)methyl)-3H-[1,2,3]triazolo[4,5-b]pyridin-5-yl)-N-(2-hydroxyethoxy)benzamide], the half-maximal inhibitory concentration (IC50) on c-Met kinase [1] was 25 to 50 nM; with Akt [2], 50 to 250 nM; with Akt [3], 10 to 25 nM; at c-Met kinase [4], 10 to 25 nM; in [5] (Table 4A) it was 25 to 50 nM. Moreover, the “% induction of caspase-3 activity” value in the assay with MKN-45 cells is recorded as “A (A is ≧75)”. Moreover, the inhibition at 0.1 µM was 75 to 100% in assay [6] and 75 to 100% in the assay with MKN-45 (MKN-45, Table 4A, 100 nM). Moreover, the GI50 in the assay with MKN-45 (MKN-45, Table 4A) lay in the range of 50 to 100 nM.
Take `O=C(NOCCO)c1ccc(-c2ccc3nnn(Cc4cc5cccnc5cc4F)c3n2)cc1Cl` [Example 7, 2-chloro-4-(3-((7-fluoroquinolin-6-yl)methyl)-3H-[1,2,3]triazolo[4,5-b]pyridin-5-yl)-N-(2-hydroxyethoxy)benzamide]: the half-maximal inhibitory concentration (IC50) on c-Met kinase [1] is at most 10 nM; with Akt [2], at most 10 nM; in the assay with Akt [3], at most 10 nM; at c-Met kinase [4], at most 10 nM; in [5] (Table 4A) it was 25 to 50 nM. Also, the “% induction of caspase-3 activity” value in the assay on MKN-45 cells is given as “A (A is ≧75)”. Besides, the inhibition at 0.1 µM in assay [6] fell in the range of 75 to 100%; in the assay with MKN-45 (MKN-45, Table 4A, 100 nM) it was 75 to 100%. The GI50 in the assay with MKN-45 (MKN-45, Table 4A) was 25 to 50 nM.
For the compound `Cc1cc(-c2ccc3nnn(Cc4ccc5ncccc5c4)c3n2)ccc1C(=O)NOCC(C)(C)O` [Example 33, N-(2-hydroxy-2-methylpropoxy)-2-methyl-4-(3-(quinolin-6-ylmethyl)-3H-[1,2,3]triazolo[4,5-b]pyridin-5-yl)benzamide], the IC50 was 10 to 50 nM in the assay on MDA-MB-231 cells; 10 to 25 nM against c-Met kinase [1]; 25 to 50 nM in the assay on Akt [2]; at most 10 nM in the assay on Akt [3]; at most 10 nM on c-Met kinase [4]. In addition, the “% induction of caspase-3 activity” value in the assay on MKN-45 cells is on record as “A (A is ≧75)”. In assay [6], the inhibition at 0.1 µM lay in the range of 75 to 100%.
Take `CC(C)(O)CONC(=O)c1ccc(-c2ccc3nnn(Cc4ccc5ncccc5c4)c3n2)cc1Cl` [Example 30, 2-chloro-N-(2-hydroxy-2-methylpropoxy)-4-(3-(quinolin-6-ylmethyl)-3H-[1,2,3]triazolo[4,5-b]pyridin-5-yl) benzamide]: the half-maximal inhibitory concentration (IC50) with MDA-MB-231 cells was under 10 nM; against c-Met kinase [1], 25 to 50 nM; in the assay on Akt [2], 25 to 50 nM; in the assay with Akt [3], at most 10 nM; at c-Met kinase [4] it was 10 to 25 nM; in assay [5] (Table 4A), 25 to 50 nM. Moreover, in the assay on MKN-45 cells, the “% induction of caspase-3 activity” value is “B (B is <75 and ≧50)”. Besides, the inhibition at 0.1 µM in [6] lay within 75 to 100%; in the assay with MKN-45 (MKN-45, Table 4A, 100 nM) it was 75 to 100%. In the assay on MKN-45 (MKN-45, Table 4A), the GI50 is 25 to 50 nM.
Regarding `NC(=O)c1c(F)cc(-c2ccc3nnn(Cc4ccc5ncsc5c4)c3n2)cc1F` [Example 1006, 4-(3-(benzo[d]thiazol-6-ylmethyl)-3H-[1,2,3]triazolo[4,5-b]pyridin-5-yl)-2,6-difluorobenzamide], the IC50 in the assay with MDA-MB-231 cells is 10 to 50 nM; on c-Met kinase [1], 25 to 50 nM; in the assay on Akt [2], 25 to 50 nM; in the assay on Akt [3] it was at most 10 nM; against c-Met kinase [4] it was at most 10 nM; in assay [5] (Table 4C), 25 to 50 nM. In the assay on MKN-45 cells, the “% induction of caspase-3 activity” value is “B (B is <75 and ≧50)”. Moreover, in the assay with MKN-45 (MKN-45, Table 4C, 100 nM), the inhibition at 0.1 µM lay in the range of 75 to 100%. Further, the GI50 in the assay with MKN-45 (MKN-45, Table 4C) lay in the range of 25 to 50 nM.
For the compound `Cc1cc(-c2ccc3nnn(Cc4ccc5ncccc5c4)c3n2)ccc1C(=O)NOCCO` [Example 25, N-(2-hydroxyethoxy)-2-methyl-4-(3-(quinolin-6-ylmethyl)-3H-[1,2,3]triazolo[4,5-b]pyridin-5-yl)benzamide], the IC50 was under 10 nM in the assay with MDA-MB-231 cells; 25 to 50 nM against c-Met kinase [1]; 10 to 25 nM with Akt [2]; at most 10 nM with Akt [3]; at most 10 nM against c-Met kinase [4]; 25 to 50 nM in assay [5] (Table 4A). For the same compound, in the assay with MKN-45 cells, the “% induction of caspase-3 activity” value is “B (B is <75 and ≧50)”. Besides, the inhibition at 0.1 µM in [6] lay in the range of 75 to 100%. Also, the GI50 in the assay on MKN-45 (MKN-45, Table 4A) is 25 to 50 nM. Besides, in the assay on MKN-45 (Table 4A, 100 nM, 0.1 µM), the “MKN45 % inhibition @ 100 nM” value is reported as “A (A= ≧75 to 100%)”.
With `O=C(NOCCO)c1c(F)cc(-c2ccc3nnn(Cc4ccc5ncccc5c4)c3n2)cc1F` [Example 8, 2,6-difluoro-N-(2-hydroxyethoxy)-4-(3-(quinolin-6-ylmethyl)-3H-[1,2,3]triazolo[4,5-b]pyridin-5-yl)benzamide], the IC50 against c-Met kinase [1] is 50 to 500 nM; with Akt [2], 50 to 250 nM; with Akt [3] it was at most 10 nM; against c-Met kinase [4], 25 to 50 nM; in assay [5] (Table 4A) it was 25 to 50 nM. In the assay on MKN-45 cells, the “% induction of caspase-3 activity” value was “C (C is <50 and ≧25)”. Moreover, the inhibition at 0.1 µM lay in the range of 75 to 100% in assay [6] and 25 to 50% in the assay on MKN-45 (MKN-45, Table 4A, 100 nM). The GI50 in the assay on MKN-45 (MKN-45, Table 4A) fell in the range of 50 to 100 nM.
